According to ChEMBL document CHEMBL4428052, “Substrate-Guided Design of Selective FXIIa Inhibitors Based on the Plant-Derived Momordica cochinchinensis Trypsin Inhibitor-II (MCoTI-II) Scaffold” (J Med Chem, 2016):
Peptide text beside a SMILES is read from it.

What was measured:
Coagulation factor XII = molecular target: T1, Coagulation factor XII (Homo sapiens, UniProt P00748); assay: Inhibition of factor 12a (unknown origin) using Ac-QRFRpNA as substrate incubated for 30 mins measured for 7 mins by morrison plot analysis
T1 sequence (P00748 whole entry): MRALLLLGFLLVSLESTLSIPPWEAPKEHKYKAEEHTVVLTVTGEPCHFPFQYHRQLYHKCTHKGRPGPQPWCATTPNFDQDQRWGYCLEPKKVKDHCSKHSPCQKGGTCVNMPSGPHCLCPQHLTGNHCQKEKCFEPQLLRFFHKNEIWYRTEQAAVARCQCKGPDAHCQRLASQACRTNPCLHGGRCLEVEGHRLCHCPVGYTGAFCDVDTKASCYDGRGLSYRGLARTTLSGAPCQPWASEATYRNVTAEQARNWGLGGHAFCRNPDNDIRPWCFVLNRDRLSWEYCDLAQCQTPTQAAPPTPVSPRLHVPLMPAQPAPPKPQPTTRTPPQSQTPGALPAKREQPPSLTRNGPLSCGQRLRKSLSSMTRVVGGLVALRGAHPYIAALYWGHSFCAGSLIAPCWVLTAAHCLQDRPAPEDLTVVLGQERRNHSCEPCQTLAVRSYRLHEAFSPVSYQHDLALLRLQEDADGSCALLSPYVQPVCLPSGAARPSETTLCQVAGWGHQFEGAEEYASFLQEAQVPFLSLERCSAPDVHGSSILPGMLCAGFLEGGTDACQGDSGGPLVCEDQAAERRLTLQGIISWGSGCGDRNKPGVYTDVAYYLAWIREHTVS

Coagulation factor IX = Coagulation factor IX (Homo sapiens, UniProt P00740); assay: Inhibition of factor 9a (unknown origin) using Ac-QGRpNA as substrate incubated for 30 mins measured for 7 mins by morrison plot analysis
Sequence of Coagulation factor IX (P00740 47-191 limits assumed): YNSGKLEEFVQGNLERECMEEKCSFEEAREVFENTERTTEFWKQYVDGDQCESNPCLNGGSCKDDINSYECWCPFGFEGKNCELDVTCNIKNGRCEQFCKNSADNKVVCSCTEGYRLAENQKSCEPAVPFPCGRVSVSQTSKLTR
Sequence of Coagulation factor IX (P00740 227-461 limits assumed): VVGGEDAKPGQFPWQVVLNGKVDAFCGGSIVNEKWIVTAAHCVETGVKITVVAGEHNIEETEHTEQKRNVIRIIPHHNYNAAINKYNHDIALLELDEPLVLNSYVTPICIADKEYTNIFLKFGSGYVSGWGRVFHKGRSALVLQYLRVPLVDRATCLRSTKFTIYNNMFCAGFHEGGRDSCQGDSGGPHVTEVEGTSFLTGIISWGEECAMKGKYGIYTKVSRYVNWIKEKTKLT

Coagulation factor XI = Coagulation factor XI (Homo sapiens, UniProt P03951); assay: Inhibition of factor 11a (unknown origin) using Bz-FVRpNA as substrate incubated for 30 mins measured for 7 mins by morrison plot analysis
Sequence of Coagulation factor XI (P03951 19-387 limits assumed): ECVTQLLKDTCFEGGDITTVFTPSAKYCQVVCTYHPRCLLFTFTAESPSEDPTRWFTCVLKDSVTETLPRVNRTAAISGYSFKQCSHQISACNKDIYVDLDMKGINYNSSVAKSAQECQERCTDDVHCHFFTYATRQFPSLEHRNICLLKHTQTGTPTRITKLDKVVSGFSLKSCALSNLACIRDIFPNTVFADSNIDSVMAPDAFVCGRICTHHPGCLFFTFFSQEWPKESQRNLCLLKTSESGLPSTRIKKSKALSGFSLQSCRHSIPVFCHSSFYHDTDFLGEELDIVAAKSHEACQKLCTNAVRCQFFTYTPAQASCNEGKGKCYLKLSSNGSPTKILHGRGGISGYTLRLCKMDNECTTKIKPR
Sequence of Coagulation factor XI (P03951 388-625 limits assumed): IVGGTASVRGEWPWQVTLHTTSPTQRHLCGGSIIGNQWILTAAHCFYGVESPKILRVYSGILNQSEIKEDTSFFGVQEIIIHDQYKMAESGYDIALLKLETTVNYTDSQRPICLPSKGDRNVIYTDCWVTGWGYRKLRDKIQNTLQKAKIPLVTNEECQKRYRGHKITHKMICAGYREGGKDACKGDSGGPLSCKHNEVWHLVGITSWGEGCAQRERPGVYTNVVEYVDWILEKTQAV

Plasminogen = Plasminogen (Homo sapiens, UniProt P00747); assay: Inhibition of plasmin (unknown origin) using Ac-RM(O2)YRpNA as substrate incubated for 30 mins measured for 7 mins by morrison plot analysis
Sequence of Plasminogen (P00747 97-580 limits assumed): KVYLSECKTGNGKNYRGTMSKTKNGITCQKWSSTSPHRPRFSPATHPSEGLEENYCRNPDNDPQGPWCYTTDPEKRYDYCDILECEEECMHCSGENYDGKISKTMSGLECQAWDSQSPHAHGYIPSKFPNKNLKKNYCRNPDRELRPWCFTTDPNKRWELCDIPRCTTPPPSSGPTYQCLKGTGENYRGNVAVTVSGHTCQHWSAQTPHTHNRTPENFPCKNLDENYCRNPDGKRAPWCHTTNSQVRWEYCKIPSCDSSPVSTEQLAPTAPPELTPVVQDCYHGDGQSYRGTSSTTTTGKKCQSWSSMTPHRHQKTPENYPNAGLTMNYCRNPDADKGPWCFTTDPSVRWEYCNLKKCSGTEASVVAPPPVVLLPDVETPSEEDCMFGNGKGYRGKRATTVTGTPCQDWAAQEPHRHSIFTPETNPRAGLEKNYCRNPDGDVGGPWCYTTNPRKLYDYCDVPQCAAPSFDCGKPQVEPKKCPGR
Sequence of Plasminogen (P00747 581-810 limits assumed): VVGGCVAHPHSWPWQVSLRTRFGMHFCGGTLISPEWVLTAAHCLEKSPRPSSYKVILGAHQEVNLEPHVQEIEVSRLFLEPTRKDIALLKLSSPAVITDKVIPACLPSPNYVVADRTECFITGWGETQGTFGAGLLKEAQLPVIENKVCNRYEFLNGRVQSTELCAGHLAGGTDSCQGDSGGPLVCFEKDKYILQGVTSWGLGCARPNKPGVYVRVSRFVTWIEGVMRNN

Trypsin = Trypsin (Homo sapiens, UniProt P07477+P07478+P35030); assay: Inhibition of trypsin (unknown origin) using Bz-FVRpNA as substrate incubated for 30 mins measured for 7 mins by morrison plot analysis; assay type: protein assay
Plasma kallikrein = Plasma kallikrein (Homo sapiens, UniProt P03952); assay: Inhibition of human plasma kallikrein using Ac-RM(O2)YRpNA as substrate incubated for 30 mins measured for 7 mins by morrison plot analysis
Sequence of Plasma kallikrein (P03952 20-390 limits assumed): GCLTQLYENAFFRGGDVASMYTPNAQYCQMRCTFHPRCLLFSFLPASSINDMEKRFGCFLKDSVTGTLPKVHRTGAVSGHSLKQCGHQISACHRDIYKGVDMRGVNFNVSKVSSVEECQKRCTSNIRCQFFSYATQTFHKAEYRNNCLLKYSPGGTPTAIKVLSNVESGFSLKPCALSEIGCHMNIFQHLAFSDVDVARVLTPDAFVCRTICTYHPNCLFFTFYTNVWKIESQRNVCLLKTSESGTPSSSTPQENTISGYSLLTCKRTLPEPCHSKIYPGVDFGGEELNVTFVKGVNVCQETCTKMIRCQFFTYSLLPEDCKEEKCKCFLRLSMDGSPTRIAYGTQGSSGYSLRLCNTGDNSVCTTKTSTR
Sequence of Plasma kallikrein (P03952 391-638 limits assumed): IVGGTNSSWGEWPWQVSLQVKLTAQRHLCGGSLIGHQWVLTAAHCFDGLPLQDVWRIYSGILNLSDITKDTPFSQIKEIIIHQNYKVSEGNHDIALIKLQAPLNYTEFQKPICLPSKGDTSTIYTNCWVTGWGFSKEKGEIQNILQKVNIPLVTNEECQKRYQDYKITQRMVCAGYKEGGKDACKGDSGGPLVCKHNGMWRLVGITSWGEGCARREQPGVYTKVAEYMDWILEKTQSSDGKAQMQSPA

[1] = molecular target: Tissue-type plasminogen activator (Homo sapiens, UniProt P00750); assay: Inhibition of tPA (unknown origin) incubated for 30 mins measured for 7 mins by morrison plot analysis
Sequence of Tissue-type plasminogen activator (P00750 whole entry): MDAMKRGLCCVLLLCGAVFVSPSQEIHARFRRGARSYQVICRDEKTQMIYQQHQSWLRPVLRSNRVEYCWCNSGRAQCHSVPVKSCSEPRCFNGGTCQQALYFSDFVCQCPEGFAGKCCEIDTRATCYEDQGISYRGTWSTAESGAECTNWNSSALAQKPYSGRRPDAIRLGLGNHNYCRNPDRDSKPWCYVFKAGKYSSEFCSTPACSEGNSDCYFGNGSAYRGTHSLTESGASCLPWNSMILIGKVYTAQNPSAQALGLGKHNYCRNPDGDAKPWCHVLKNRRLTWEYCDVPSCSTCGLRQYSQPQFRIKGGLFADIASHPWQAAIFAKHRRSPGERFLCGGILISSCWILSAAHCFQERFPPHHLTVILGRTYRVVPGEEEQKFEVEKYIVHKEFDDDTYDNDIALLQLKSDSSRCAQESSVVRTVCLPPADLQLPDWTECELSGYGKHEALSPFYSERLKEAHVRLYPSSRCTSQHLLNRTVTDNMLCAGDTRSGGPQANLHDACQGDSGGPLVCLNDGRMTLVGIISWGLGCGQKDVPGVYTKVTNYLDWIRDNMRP

Coagulation factor X = Coagulation factor X (Homo sapiens, UniProt P00742); assay: Inhibition of factor 10a (unknown origin) using Ac-QRSRpNA as substrate incubated for 30 mins measured for 7 mins by morrison plot analysis
Sequence of Coagulation factor X (P00742 41-179 limits assumed): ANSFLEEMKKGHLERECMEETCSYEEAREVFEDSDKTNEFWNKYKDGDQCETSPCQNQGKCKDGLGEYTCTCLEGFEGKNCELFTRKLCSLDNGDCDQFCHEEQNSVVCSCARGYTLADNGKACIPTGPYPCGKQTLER
Sequence of Coagulation factor X (P00742 235-488 limits assumed): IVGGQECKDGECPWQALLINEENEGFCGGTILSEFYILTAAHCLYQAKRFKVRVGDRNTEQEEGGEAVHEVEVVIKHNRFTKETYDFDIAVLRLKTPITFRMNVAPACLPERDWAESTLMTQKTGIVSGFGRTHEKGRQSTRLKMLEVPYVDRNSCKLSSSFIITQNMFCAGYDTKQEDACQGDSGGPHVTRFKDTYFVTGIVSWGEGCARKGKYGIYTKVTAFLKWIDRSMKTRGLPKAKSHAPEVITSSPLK

Homo sapiens = species: Homo sapiens; assay: Selectivity ratio of Ki for factor 10a (unknown origin) to Ki for factor 12a (unknown origin)
Prothrombin = Prothrombin (Homo sapiens, UniProt P00734); assay: Inhibition of thrombin (unknown origin) using Ac-ATPRpNA as substrate incubated for 30 mins measured for 7 mins by morrison plot analysis
[2] = molecular target: Urokinase-type plasminogen activator (Homo sapiens, UniProt P00749); assay: Inhibition of uPA (unknown origin) incubated for 30 mins measured for 7 mins by morrison plot analysis

Structure (SMILES)	Ki (Coagulation factor XII)	Ki (Coagulation factor IX)	Ki (Coagulation factor XI)	Ki (Plasminogen)	Ki (Trypsin)	Ki (Plasma kallikrein)	Ki [1]	Ki (Coagulation factor X)	Ratio Ki (Homo sapiens)	Ki (Prothrombin)	Ki [2]
CC[C@H](C)[C@@H]1NC(=O)[C@@H]2CSSC[C@H](NC(=O)[C@@H](NC(=O)CNC(=O)CN)C(C)C)C(=O)N3CCC[C@H]3C(=O)N[C@@H](CCCCN)C(=O)N[C@@H]([C@@H](C)CC)C(=O)N[C@@H](CC(C)C)C(=O)N[C@@H](CCCCN)C(=O)N[C@@H](CCCCN)C(=O)N[C@H]3CSSC[C@H](NC1=O)C(=O)N[C@@H](CCCNC(=N)N)C(=O)NCC(=O)N[C@@H](CC(N)=O)C(=O)NCC(=O)N[C@@H](Cc1ccc(O)cc1)C(=O)N[C@H](C(=O)NCC(=O)N[C@@H](CO)C(=O)NCC(=O)N[C@@H](CO)C(=O)N[C@@H](CC(=O)O)C(=O)O)CSSC[C@H](NC(=O)[C@H](CC(=O)O)NC(=O)[C@H](CO)NC(=O)[C@H](CC(=O)O)NC(=O)[C@H](CCCNC(=N)N)NC(=O)[C@H](CCCNC(=N)N)NC3=O)C(=O)N1CCC[C@H]1C(=O)NCC(=O)N[C@@H](C)C(=O)N2	0.75 µM	> 10 µM	> 10 µM	0.028 µM	0.00016 µM	> 10 µM	> 10 µM	–	–	–	–
CC(=O)N[C@@H](CCC(N)=O)C(=O)N[C@@H](CCCNC(=N)N)C(=O)N[C@@H](Cc1ccccc1)C(=O)N[C@H](C=O)CCCNC(=N)N (Ac-QRFR-aldehyde)	0.18 µM	–	–	–	–	–	–	0.57 µM	3	–	–
CC[C@H](C)[C@@H]1NC(=O)[C@H](CCCNC(=N)N)NC(=O)[C@H](CO)NC(=O)[C@H](NC(=O)[C@H](CCC(N)=O)NC(=O)CNC(=O)CN)CSSC[C@H]2NC(=O)[C@H](C)NC(=O)CNC(=O)[C@@H]3CCCN3C(=O)[C@@H]3CSSC[C@H](C(=O)NCC(=O)N[C@@H](CO)C(=O)NCC(=O)N[C@@H](CO)C(=O)N[C@@H](CC(=O)O)C(=O)O)NC(=O)[C@H](Cc4ccc(O)cc4)NC(=O)CNC(=O)[C@H](CC(N)=O)NC(=O)CNC(=O)[C@H](CCCNC(=N)N)NC(=O)[C@H](CSSC[C@H](NC(=O)[C@H](CCCCN)NC(=O)[C@H](CCCCN)NC(=O)[C@H](CC(C)C)NC1=O)C(=O)N[C@@H](CCCNC(=N)N)C(=O)N[C@@H](CCCNC(=N)N)C(=O)N[C@@H](CC(=O)O)C(=O)N[C@@H](CO)C(=O)N[C@@H](CC(=O)O)C(=O)N3)NC(=O)[C@H]([C@@H](C)CC)NC2=O	–	–	–	–	–	–	–	96 µM	–	> 10 µM	> 10 µM
CC[C@H](C)[C@@H]1NC(=O)[C@H](CCCCN)NC(=O)[C@@H]2CCCN2C(=O)[C@H](NC(=O)[C@@H](NC(=O)CNC(=O)CN)C(C)C)CSSC[C@H]2NC(=O)[C@H](C)NC(=O)CNC(=O)[C@@H]3CCCN3C(=O)[C@@H]3CSSC[C@H](C(=O)NCC(=O)N[C@@H](CO)C(=O)NCC(=O)N[C@@H](CO)C(=O)N[C@@H](CC(=O)O)C(=O)O)NC(=O)[C@H](Cc4ccc(O)cc4)NC(=O)CNC(=O)[C@H](CC(N)=O)NC(=O)CNC(=O)[C@H](CCCNC(=N)N)NC(=O)[C@H](CSSC[C@H](NC(=O)[C@H](CCCCN)NC(=O)[C@H](CCCCN)NC(=O)[C@H](CC(C)C)NC1=O)C(=O)N[C@@H](CCCNC(=N)N)C(=O)N[C@@H](CCCNC(=N)N)C(=O)N[C@@H](CC(=O)O)C(=O)N[C@@H](CO)C(=O)N[C@@H](CC(=O)O)C(=O)N3)NC(=O)[C@H]([C@@H](C)CC)NC2=O	–	–	–	–	–	–	–	> 10 µM	–	> 10 µM	> 10 µM
CC[C@H](C)[C@@H]1NC(=O)[C@H](CCCNC(=N)N)NC(=O)[C@H](Cc2ccccc2)NC(=O)[C@H](NC(=O)[C@H](CCC(N)=O)NC(=O)CNC(=O)CN)CSSC[C@H]2NC(=O)[C@H](C)NC(=O)CNC(=O)[C@@H]3CCCN3C(=O)[C@@H]3CSSC[C@H](C(=O)NCC(=O)N[C@@H](CO)C(=O)NCC(=O)N[C@@H](CO)C(=O)N[C@@H](CC(=O)O)C(=O)O)NC(=O)[C@H](Cc4ccc(O)cc4)NC(=O)CNC(=O)[C@H](CC(N)=O)NC(=O)CNC(=O)[C@H](CCCNC(=N)N)NC(=O)[C@H](CSSC[C@H](NC(=O)[C@H](CCCCN)NC(=O)[C@H](CCCCN)NC(=O)[C@H](Cc4c[nH]c5ccccc45)NC1=O)C(=O)N[C@@H](CCCNC(=N)N)C(=O)N[C@@H](CCCNC(=N)N)C(=O)N[C@@H](CC(=O)O)C(=O)N[C@@H](CO)C(=O)N[C@@H](CC(=O)O)C(=O)N3)NC(=O)[C@H]([C@@H](C)CC)NC2=O	–	–	–	–	–	–	–	> 100 µM	–	> 10 µM	> 10 µM
CC[C@H](C)[C@@H]1NC(=O)[C@@H]2CSSC[C@H](NC(=O)[C@H](CCC(N)=O)NC(=O)CNC(=O)CN)C(=O)N[C@@H](Cc3ccccc3)C(=O)N[C@@H](CCCNC(=N)N)C(=O)N[C@@H]([C@@H](C)CC)C(=O)N[C@@H](CC(C)C)C(=O)N[C@@H](CCCCN)C(=O)N[C@@H](CCCCN)C(=O)N[C@H]3CSSC[C@H](NC1=O)C(=O)N[C@@H](CCCNC(=N)N)C(=O)NCC(=O)N[C@@H](CC(N)=O)C(=O)NCC(=O)N[C@@H](Cc1ccc(O)cc1)C(=O)N[C@H](C(=O)NCC(=O)N[C@@H](CO)C(=O)NCC(=O)N[C@@H](CO)C(=O)N[C@@H](CC(=O)O)C(=O)O)CSSC[C@H](NC(=O)[C@H](CC(=O)O)NC(=O)[C@H](CO)NC(=O)[C@H](CC(=O)O)NC(=O)[C@H](CCCNC(=N)N)NC(=O)[C@H](CCCNC(=N)N)NC3=O)C(=O)N1CCC[C@H]1C(=O)NCC(=O)N[C@@H](C)C(=O)N2	0.11 µM	> 10 µM	> 10 µM	0.27 µM	0.0069 µM	> 10 µM	> 10 µM	–	–	–	–
CC[C@H](C)[C@@H]1NC(=O)[C@@H]2CSSC[C@H](NC(=O)[C@H](CCC(N)=O)NC(=O)CNC(=O)[C@@H](N)CCCCN)C(=O)N[C@@H](Cc3ccccc3)C(=O)N[C@@H](CCCNC(=N)N)C(=O)N[C@@H]([C@@H](C)CC)C(=O)N[C@@H](Cc3c[nH]c4ccccc34)C(=O)N[C@@H](CCCCN)C(=O)N[C@@H](CCCCN)C(=O)N[C@H]3CSSC[C@H](NC1=O)C(=O)N[C@@H](CCCNC(=N)N)C(=O)NCC(=O)N[C@@H](CC(N)=O)C(=O)NCC(=O)N[C@@H](Cc1ccc(O)cc1)C(=O)N[C@H](C(=O)NCC(=O)N[C@@H](CO)C(=O)NCC(=O)N[C@@H](CO)C(=O)N[C@@H](CC(=O)O)C(=O)O)CSSC[C@H](NC(=O)[C@H](CC(=O)O)NC(=O)[C@H](CO)NC(=O)[C@H](CC(=O)O)NC(=O)[C@H](CCCNC(=N)N)NC(=O)[C@H](CCCNC(=N)N)NC3=O)C(=O)N1CCC[C@H]1C(=O)NCC(=O)N[C@@H](C)C(=O)N2	0.49 µM	> 50 µM	> 100 µM	4.54 µM	6.24 µM	> 50 µM	> 50 µM	–	–	–	–
CC[C@H](C)[C@@H]1NC(=O)[C@@H]2CSSC[C@H](NC(=O)[C@H](CCC(N)=O)NC(=O)CNC(=O)CN)C(=O)N[C@@H](CO)C(=O)N[C@@H](CCCNC(=N)N)C(=O)N[C@@H]([C@@H](C)CC)C(=O)N[C@@H](CC(C)C)C(=O)N[C@@H](CCCCN)C(=O)N[C@@H](CCCCN)C(=O)N[C@H]3CSSC[C@H](NC1=O)C(=O)N[C@@H](CCCNC(=N)N)C(=O)NCC(=O)N[C@@H](CC(N)=O)C(=O)NCC(=O)N[C@@H](Cc1ccc(O)cc1)C(=O)N[C@H](C(=O)NCC(=O)N[C@@H](CO)C(=O)NCC(=O)N[C@@H](CO)C(=O)N[C@@H](CC(=O)O)C(=O)O)CSSC[C@H](NC(=O)[C@H](CC(=O)O)NC(=O)[C@H](CO)NC(=O)[C@H](CC(=O)O)NC(=O)[C@H](CCCNC(=N)N)NC(=O)[C@H](CCCNC(=N)N)NC3=O)C(=O)N1CCC[C@H]1C(=O)NCC(=O)N[C@@H](C)C(=O)N2	2.16 µM	> 10 µM	> 10 µM	> 10 µM	> 10 µM	> 10 µM	> 10 µM	–	–	–	–
CC[C@H](C)[C@@H]1NC(=O)[C@@H]2CSSC[C@H](NC(=O)[C@H](CCC(N)=O)NC(=O)CNC(=O)CN)C(=O)N[C@@H](Cc3ccccc3)C(=O)N[C@@H](CCCNC(=N)N)C(=O)N[C@@H]([C@@H](C)CC)C(=O)N[C@@H](Cc3c[nH]c4ccccc34)C(=O)N[C@@H](CCCCN)C(=O)N[C@@H](CCCCN)C(=O)N[C@H]3CSSC[C@H](NC1=O)C(=O)N[C@@H](CCCNC(=N)N)C(=O)NCC(=O)N[C@@H](CC(N)=O)C(=O)NCC(=O)N[C@@H](Cc1ccc(O)cc1)C(=O)N[C@H](C(=O)NCC(=O)N[C@@H](CO)C(=O)NCC(=O)N[C@@H](CO)C(=O)N[C@@H](CC(=O)O)C(=O)O)CSSC[C@H](NC(=O)[C@H](CC(=O)O)NC(=O)[C@H](CO)NC(=O)[C@H](CC(=O)O)NC(=O)[C@H](CCCNC(=N)N)NC(=O)[C@H](CCCNC(=N)N)NC3=O)C(=O)N1CCC[C@H]1C(=O)NCC(=O)N[C@@H](C)C(=O)N2	0.51 µM	> 10 µM	> 10 µM	1.5 µM	2.24 µM	> 10 µM	> 10 µM	–	–	–	–
